Laboratory results: ChEMBL document CHEMBL1914429, “Potent and selective 2-naphthylsulfonamide substituted hydroxamic acid inhibitors of matrix metalloproteinase-13” (Bioorg Med Chem Lett, 2011)

Key:
[1] = molecular target: 72 kDa type IV collagenase (Homo sapiens, UniProt P08253)
[2] = AUC in rat at 5 mg/kg, po; format: ADME, organism-based; set-up: dose 5 mg/kg, route oral; details: plasma
[3] = Clearance in rat at 5 mg/kg, po and 1 mg/kg, iv; format: ADME, organism-based; details: in vivo
[4] = Oral bioavailability in rat at 5 mg/kg; format: ADME, organism-based; details: in vivo
[5] = Half life in rat at 5 mg/kg, po and 1 mg/kg, iv; format: ADME, organism-based; details: in vivo

Sequence of 72 kDa type IV collagenase (P08253 whole entry): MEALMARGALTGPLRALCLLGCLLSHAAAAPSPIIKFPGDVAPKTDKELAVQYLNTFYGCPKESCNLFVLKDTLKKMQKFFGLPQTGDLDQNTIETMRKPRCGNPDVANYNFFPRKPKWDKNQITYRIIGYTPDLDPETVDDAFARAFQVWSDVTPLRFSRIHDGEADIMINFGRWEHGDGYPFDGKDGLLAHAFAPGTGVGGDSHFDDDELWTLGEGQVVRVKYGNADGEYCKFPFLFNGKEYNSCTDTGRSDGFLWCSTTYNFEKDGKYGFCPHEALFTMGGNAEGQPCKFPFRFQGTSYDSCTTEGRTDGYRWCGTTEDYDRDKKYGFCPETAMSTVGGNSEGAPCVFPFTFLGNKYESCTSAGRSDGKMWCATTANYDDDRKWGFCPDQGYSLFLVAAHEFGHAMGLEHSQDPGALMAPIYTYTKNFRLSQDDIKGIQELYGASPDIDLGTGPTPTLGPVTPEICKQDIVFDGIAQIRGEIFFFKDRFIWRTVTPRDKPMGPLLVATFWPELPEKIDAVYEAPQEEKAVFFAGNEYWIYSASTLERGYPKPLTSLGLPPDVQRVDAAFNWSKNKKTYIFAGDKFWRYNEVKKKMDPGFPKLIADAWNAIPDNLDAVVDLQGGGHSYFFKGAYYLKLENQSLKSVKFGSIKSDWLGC

Row | SMILES | IC50 [1] | AUC [2] | clearance [3] | bioavailability [4] | half-life [5]
1 | CC(C)[C@H](C(=O)NO)N(CCc1ccccc1)S(=O)(=O)c1ccc2ccccc2c1 | – | 0.45 µM·h | 55 mL/min/kg | – | –
2 | CC(C)[C@H](C(=O)NO)N(Cc1ccncc1)S(=O)(=O)c1ccc2ccccc2c1 | – | 0.32 µM·h | 122 mL/min/kg | – | –
3 | CC(C)[C@H](C(=O)NO)N(Cc1cccnc1)S(=O)(=O)c1ccc2ccccc2c1 | – | 0.55 µM·h | 107 mL/min/kg | – | –
4 | CC(C)[C@H](C(=O)NO)N(CCN(C)C)S(=O)(=O)c1ccc2ccccc2c1 | – | 0.27 µM·h | 233 mL/min/kg | – | –
5 | CC(C)CCN([C@H](CO)C(=O)NO)S(=O)(=O)c1ccc2ccccc2c1 | – | 2.4 µM·h | 45 mL/min/kg | – | –
6 | CC(C)CCN([C@@H](C(=O)NO)C(C)(C)C)S(=O)(=O)c1ccc2ccccc2c1 | – | 7.2 µM·h | 26.7 mL/min/kg | – | –
7 | CC(C)CCN([C@@H](C(=O)NO)C(C)O)S(=O)(=O)c1ccc2ccccc2c1 (stereo not given in full) | – | 3.1 µM·h | 55 mL/min/kg | – | –

Results, then the molecule that gave them:

Row | IC50 [1] | AUC [2] | clearance [3] | bioavailability [4] | half-life [5] | SMILES
8 | 3 nM | – | – | – | – | CC(C)CCN([C@@H](C(=O)NO)C(C)C)S(=O)(=O)c1ccc2c(c1)OCCO2
9 | 308 nM | – | – | – | – | CC(C)CN([C@@H](C(=O)NO)C(C)C)S(=O)(=O)c1ccc2ccccc2c1
10 | – | 1.5 µM·h | 40 mL/min/kg | 23.8% | 5.7 h | CC(C)CCN([C@@H](C(=O)NO)C(C)C)S(=O)(=O)c1ccc2ccccc2c1
11 | 2050 nM | 0.13 µM·h | 91.7 mL/min/kg | – | – | CC(C)CCN([C@@H](C(=O)NO)C(C)C)S(=O)(=O)c1ccc2ccccc2n1
12 | – | 4.6 µM·h | 18.3 mL/min/kg | – | – | CC(C)CCN([C@@H](C(=O)NO)C(C)C)S(=O)(=O)c1ccc2ncccc2c1
13 | 16 nM | 1.5 µM·h | 118 mL/min/kg | – | – | CC(C)CCN([C@@H](C(=O)NO)C(C)C)S(=O)(=O)c1ccc2sccc2c1
14 | 10 nM | – | – | – | – | CC(C)CCN([C@@H](C(=O)NO)C(C)C)S(=O)(=O)c1ccc2c(c1)CCO2
15 | 30100 nM | – | – | – | – | COc1ccc(S(=O)(=O)N(CCC(C)C)[C@@H](C(=O)NO)C(C)C)cc1OC
